Measured values published in PubChem BioAssay (NCI).
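All cell lines were grown in 96-well plates and treated with compound for 48 hours. GI50 = concentration required for 50% inhibition of growth. At the TGI there is no net growth.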

Legend:
Experiment in all cases: inhibition of tumour cell growth, NCI panel, 48 h
M14 melanoma = test system: M14 melanoma
SNB-19 CNS = test system: SNB-19 CNS
HCC-2998 colon = test system: HCC-2998 colon
OVCAR-8 ovarian = test system: OVCAR-8 ovarian
SR leukemia = test system: SR leukemia
OVCAR-3 ovarian = test system: OVCAR-3 ovarian
MALME-3M melanoma = test system: MALME-3M melanoma
RPMI-8226 leukemia = test system: RPMI-8226 leukemia

| Compound | TGI (M14 melanoma) | TGI (SNB-19 CNS) | TGI (HCC-2998 colon) | TGI (OVCAR-8 ovarian) | TGI (SR leukemia) | TGI (OVCAR-3 ovarian) | GI50 (M14 melanoma) | GI50 (SNB-19 CNS) | GI50 (HCC-2998 colon) | GI50 (OVCAR-8 ovarian) | GI50 (MALME-3M melanoma) | TGI (MALME-3M melanoma) | GI50 (RPMI-8226 leukemia) | TGI (RPMI-8226 leukemia) | GI50 (SR leukemia) | GI50 (OVCAR-3 ovarian) |
| --- | --- | --- | --- | --- | --- | --- | --- | --- | --- | --- | --- | --- | --- | --- | --- | --- |
| COCCNc1cncc(C(N)=O)c1 | > 100 µM | > 100 µM | > 100 µM | > 100 µM | > 100 µM | > 100 µM |  |  |  |  |  |  |  |  |  |  |
| O=C(/C=C/C12c3ccccc3C(c3ccccc31)C1C(=O)NC(=O)C12)c1ccccc1 (stereo unspecified) | 3.68 µM | 3.34 µM | 3.27 µM | 5.1 µM | 17.6 µM | 3.37 µM | 1.78 µM | 1.66 µM | 1.7 µM | 1.72 µM | 1.64 µM | 3.15 µM | 1.51 µM | 4.1 µM | 1.57 µM | 1.65 µM |
| CCOC(=O)C1=C(C)NC(c2ccco2)=C(C#N)C1c1cccc([N+](=O)[O-])c1 (stereo unspecified) | 3.28 µM |  | 0.159 µM | 13.9 µM | 17.5 µM | 0.0373 µM | 0.0132 µM | 0.0253 µM | 0.0558 µM | 0.0149 µM |  | 23.6 µM | 0.0658 µM |  | 0.0416 µM | 0.0147 µM |
| Cc1cccc2c1[nH]c(=O)c1c3ccccc3cn21 | 30.9 µM | 48 µM | 16.3 µM | > 100 µM | 4.15 µM | 28.2 µM | 12.4 µM | 15.6 µM | 4.6 µM | 3.57 µM | 8.23 µM | 24.7 µM | 2 µM | 7.15 µM | 1.54 µM | 4.78 µM |
| C=C1CCC2C3(C)COC(c4ccccc4Cl)OC3CCC2(C)C1/C=C/C1=CCOC1=O (stereo unspecified) | > 100 µM | > 100 µM | > 100 µM | > 100 µM | > 100 µM | > 100 µM | 89.6 µM | > 100 µM | 21.1 µM | 13.8 µM | 17.2 µM | > 100 µM | 1.16 µM | 9.97 µM | 3.97 µM | 26.2 µM |
| COc1ccc(S(=O)(=O)N(C(C)=O)c2ccccc2/C=C/c2cc[n+]([O-])cc2)cc1 | 8.08 µM | > 10 µM | > 10 µM | > 10 µM | > 10 µM | 1.57 µM | 0.388 µM | 0.418 µM | 2.27 µM | 1.11 µM | 3.77 µM | > 10 µM | 0.953 µM | > 10 µM | 0.23 µM | 0.371 µM |
| O=C(O)c1ccc(SSc2ccc(C(=O)O)cn2)nc1 | > 100 µM | > 100 µM |  | > 100 µM | > 100 µM | > 100 µM |  |  |  |  |  | > 100 µM |  | > 100 µM |  |  |
| COc1cc(CNc2oc(-c3ccccc3)c(-c3ccccc3)c2C#N)cc(CN2CCN(C)CC2)c1O | 3.65 µM | 3.33 µM | 3.36 µM | 10.1 µM | 4.46 µM | 3.21 µM | 1.78 µM | 1.81 µM | 1.79 µM | 2.56 µM | 1.85 µM | 3.41 µM | 2.23 µM | 6.33 µM | 1.6 µM | 1.76 µM |
| CC/C(=C/c1ccc(OC)cc1OC)[N+](=O)[O-] | 8.53 µM | 16.6 µM | 15.8 µM | 11.6 µM | 17 µM | 3.38 µM | 2.44 µM | 4.35 µM | 4.32 µM | 3.5 µM | 1.91 µM | 4.93 µM | 2.31 µM | 7.19 µM | 2.61 µM | 1.84 µM |
| CCN(Cc1c(F)cccc1Cl)c1ccc(CO)c(Cl)c1 | 35.9 µM | 40.1 µM | 18.3 µM | 23.9 µM | 42.7 µM | 0.297 µM | 17.6 µM | 15.7 µM | 3.27 µM | 7.65 µM | 14.1 µM | 28.6 µM | 0.173 µM | 22 µM | 16.5 µM | < 0.034 µM |
| COc1cc(/C=C2\CCCC3=C2N=C2SC(C)=NN2C3c2cc(OC)c(OC)c(OC)c2)cc(OC)c1OC (stereo unspecified) |  |  |  | > 100 µM | > 100 µM | > 100 µM |  |  |  | 0.311 µM | > 100 µM | > 100 µM |  |  | 0.347 µM | 0.58 µM |
| CCOC(=O)/C=C/c1cccc(F)c1 | > 100 µM | > 100 µM | > 100 µM | > 100 µM | > 100 µM |  |  |  |  |  |  | > 100 µM |  | > 100 µM |  |  |
| Nc1cccc2c1C(=O)c1cccc(NC(=O)c3ccccc3)c1C2=O | 36.4 µM | > 100 µM | > 100 µM | > 38.8 µM | > 100 µM | 1.47 µM | 0.4 µM | 0.591 µM | 2.79 µM | 0.784 µM | 0.242 µM | 7.09 µM | 0.462 µM | > 100 µM | 0.165 µM | 0.254 µM |
| CN1CCN(CCCOc2cc(O)c3c(=O)cc(-c4ccccc4)oc3c2)CC1 |  | 63.5 µM | 27.3 µM | > 100 µM | 44.6 µM | 54.9 µM |  | 24.9 µM | 14.3 µM | 37.1 µM | 20.8 µM | 42.6 µM | 21.3 µM | 55.2 µM | 16.9 µM | 20.8 µM |
| O=c1[nH]c(=O)n(C2CC(O)C(CO)O2)cc1C(F)(F)F (stereo unspecified) | > 34.5 µM | > 100 µM | > 100 µM | > 100 µM | > 100 µM | > 100 µM | 1.01 µM | 2.96 µM | 11.3 µM | 5.12 µM | > 49.9 µM | > 100 µM | > 20.3 µM | > 100 µM | 1.02 µM | > 77.4 µM |
| CC(SCc1ccccc1)C(=O)O (stereo unspecified) | > 100 µM | > 100 µM |  | > 100 µM | > 100 µM | > 100 µM |  |  |  |  |  | > 100 µM |  | > 100 µM |  |  |
